According to patent US20050245399A1, “Pyrazole derivatives as herbicidal compositions containing them” (ISHIHARA SANGYO KAISHA, LTD., priority 2004, published 2005):

How the values were obtained:
Format in all cases: in vivo
[1] = test system: barnyardgrass (Echinochloa crus-galli L.): ECHCG; test: Test Example 1 pre-emergence herbicidal activity, ECHCG; conditions: Rate 63 g a.i./ha, visually observed 20th to 23rd day after application
Summary of the method: (§1)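 pots, upland field soil; sow; +1 d spray compound (WP or EC, a.i. at set dose, 500 L/ha water), pre-emergence; visual % growth control d20–23 (0 untreated, 100 complete kill).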

[2] = test system: crabgrass (Digitaria sanguinalis L.): DIGSA; test: Test Example 1 pre-emergence herbicidal activity, DIGSA; conditions: Rate 63 g a.i./ha, visually observed 20th to 23rd day after application
Summary of the method: as §1

[3] = test system: green foxtail (Setaria viridis L.): SETVI; test: Test Example 1 pre-emergence herbicidal activity, SETVI; conditions: Rate 63 g a.i./ha, visually observed 20th to 23rd day after application
Summary of the method: as §1

[4] = test system: redroot pigweed (Amaranthus retroflexus L.): AMARE; test: Test Example 1 pre-emergence herbicidal activity, AMARE; conditions: Rate 63 g a.i./ha, visually observed 20th to 23rd day after application
Summary of the method: as §1

[5] = test system: prickly sida (Sida spinosa L.): SEDSP; test: Test Example 1 pre-emergence herbicidal activity, SIDSP; conditions: Rate 63 g a.i./ha, visually observed 20th to 23rd day after application
Summary of the method: as §1

[6] = test system: velvetleaf (Abutilon theophrasti): ABUTH; test: Test Example 1 pre-emergence herbicidal activity, ABUTH; conditions: Rate 63 g a.i./ha, visually observed 20th to 23rd day after application
Summary of the method: as §1

[7] = test system: rice (Oryza sativa L.): ORYSA; test: Test Example 1 pre-emergence herbicidal activity, ORYSA; conditions: Rate 63 g a.i./ha, visually observed 20th to 23rd day after application
Summary of the method: as §1

[8] = test system: wheat (Triticum aestivum L.): TRZAX; test: Test Example 1 pre-emergence herbicidal activity, TRZAX; conditions: Rate 63 g a.i./ha, visually observed 20th to 23rd day after application
Summary of the method: as §1

[9] = test system: corn (Zea mays L.): ZEAMX; test: Test Example 1 pre-emergence herbicidal activity, ZEAMX; conditions: Rate 63 g a.i./ha, visually observed 20th to 23rd day after application
Summary of the method: as §1

[10] = test system: soybean (Glycine max Merr.): GLXMA; test: Test Example 1 pre-emergence herbicidal activity, GLXMA; conditions: Rate 63 g a.i./ha, visually observed 20th to 23rd day after application
Summary of the method: as §1

[11] = test system: barnyardgrass (Echinochloa crus-galli L.), ECHCG; test: Test Example 2 post-emergence (foliage treatment) herbicidal activity, ECHCG; conditions: 63 g a.i./ha
Summary of the method: (§2)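 Herbicide was applied to foliage of seedlings raised in upland field soil: redroot pigweed at 0.1-1.5 leaves, barnyardgrass at 1.1-2.1, crabgrass at 1.0-2.0, rice at 1.0-2. A predetermined active ingredient amount was carried in 500 L/ha water with 0.1% (v/v) spreader; control (%) was assessed by eye after 20-23 days.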

[12] = test system: crabgrass (Digitaria sanguinalis L.), DIGSA; test: Test Example 2 post-emergence (foliage treatment) herbicidal activity, DIGSA; conditions: 63 g a.i./ha
Summary of the method: as §2

[13] = test system: green foxtail (Setaria viridis L.), SETVI; test: Test Example 2 post-emergence (foliage treatment) herbicidal activity, SETVI; conditions: 63 g a.i./ha
Summary of the method: (§3)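 Foliar spray of formulated compound (500 L/ha dilution water, 0.1% v/v spreader) onto young potted plants at defined leaf stages. Scored 0-100% by visual inspection 20-23 d post-spray.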

[14] = test system: redroot pigweed (Amaranthus retroflexus L.), AMARE; test: Test Example 2 post-emergence (foliage treatment) herbicidal activity, AMARE; conditions: 63 g a.i./ha
Text: Upland field soil was put into a 1/170,000 ha pot, and seeds of various plants were sown. Then, when the plants reached predetermined leaf stages {1. barnyardgrass (Echinochloa crus-galli L.), ECHCG: 1.1-2.1 leaf stage, 2. crabgrass (Digitaria sanguinalis L.), DIGSA: 1.0-2.0 leaf stage, 3. green foxtail (Setaria viridis L.), SETVI: 1.0-2.2 leaf stage, 4. redroot pigweed (Amaranthus retroflexus L.), AMARE: 0.1-1.5 leaf stage, 5. prickly sida (Sida spinosa L.), SIDSP: 0.1-0.6 leaf stage, 6. velvetleaf (Abutilon theophrasti), ABUTH: 0.1-0.6 leaf stage, 7. common cocklebur (Xanthium strumarium L.), XANST: 0.1 leaf stage, 8. rice (Oryza sativa L.), ORYSA; 1.0-2 leaf stage, 9. wheat (Triticum aestivum L.), TRZAX: 2.3-3.5 leaf stage, 10. corn (Zea mays L.), ZEAMXN 2.1-2.6 leaf stage, 11. soybean (Glycine max Merr.), GLXMA: primary leaf stage}, a wettable powder or emulsifiable concentrate having the compound of the present invention formulated in accordance with a usual formulation method, was weighed so that the active ingredient would be a predetermined amount, and diluted with water in an amount of 500 L/ha. To the diluted solution, 0.1% (v/v) of an agricultural spreader was added. The herbicide adjusted was applied by a small size sprayer for foliage treatment. On the 20th to 23rd day after the application of the herbicide, the growth of the respective plants was visually observed, and the herbicidal effects were evaluated by growth controlling degrees (%) ranging from 0 (equivalent to the untreated control) to 100 (complete kill), whereby the results shown in Table 5, were obtained. Compound Nos. in Table 5 correspond to Compound Nos. in Table 1 and 2 given hereinbefore.

[15] = test system: velvetleaf (Abutilon theophrasti), ABUTH; test: Test Example 2 post-emergence (foliage treatment) herbicidal activity, ABUTH; conditions: 63 g a.i./ha
Summary of the method: as §3

[16] = test system: rice (Oryza sativa L.), ORYSA; test: Test Example 2 post-emergence (foliage treatment) herbicidal activity, ORYSA; conditions: 63 g a.i./ha
Summary of the method: as §2

[17] = test system: wheat (Triticum aestivum L.), TRZAX; test: Test Example 2 post-emergence (foliage treatment) herbicidal activity, TRZAX; conditions: 63 g a.i./ha
Summary of the method: as §3

[18] = test system: corn (Zea mays L.), ZEAMX; test: Test Example 2 post-emergence (foliage treatment) herbicidal activity, ZEAMX; conditions: 63 g a.i./ha
Summary of the method: as §3

[19] = test system: soybean (Glycine max Merr.), GLXMA; test: Test Example 2 post-emergence (foliage treatment) herbicidal activity, GLXMA; conditions: 63 g a.i./ha
Summary of the method: as §3

SMILES | Pre-emergence Herbicidal Activity ECHCG (growth controlling degree) [1] [%] | Pre-emergence Herbicidal Activity DIGSP (growth controlling degree) [2] [%] | Pre-emergence Herbicidal Activity SETVI (growth controlling degree) [3] [%] | Pre-emergence Herbicidal Activity AMARE (growth controlling degree) [4] [%] | Pre-emergence Herbicidal Activity SIDSP (growth controlling degree) [5] [%] | Pre-emergence Herbicidal Activity ABUTH (growth controlling degree) [6] [%] | Pre-emergence Herbicidal Activity ORYSA (growth controlling degree) [7] [%] | Pre-emergence Herbicidal Activity TRZAX (growth controlling degree) [8] [%] | Pre-emergence Herbicidal Activity ZEAMX (growth controlling degree) [9] [%] | Pre-emergence Herbicidal Activity GLXMA (growth controlling degree) [10] [%] | growth controlling degree, ECHCO [11] [%] | growth controlling degree, DIGSP [12] [%] | growth controlling degree, SETVI [13] [%] | growth controlling degree, AMARE [14] [%] | growth controlling degree, ABUTH [15] [%] | growth controlling degree, ORYSA [16] [%] | growth controlling degree, TRZAX [17] [%] | growth controlling degree, ZEAMX [18] [%] | growth controlling degree, GLXMA [19] [%]
CCOC(=O)C(C)Nc1c(OC)c(Cl)cc(F)c1-c1nn(C)c(OC(F)F)c1Cl (centres unmarked) [Compound 1-76] | 60 | 100 | 60 | 100 | 60 | 40 | 10 | 0 | 0 | 0 | 100 | 70 | 80 | 100 | 100 | 80 | 40 | 90 | 70
COc1c(Cl)cc(F)c(-c2nn(C)c(OC(F)F)c2Cl)c1NC(=O)CCC1CCCCC1 [Compound 1-259] | 10 | 20 | 30 | 100 | 30 | 0 | 0 | 10 | 0 | 0 | 50 | 30 | 50 | 100 | 100 | 10 | 0 | 0 | 10
COc1c(Cl)cc(F)c(-c2nn(C)c(OC(F)F)c2Cl)c1NC(=O)c1cccc(C)c1 [Compound 1-260] | 60 | 100 | 100 | 100 | 70 | 40 | 50 | 30 | 10 | 0 | 100 | 95 | 100 | 100 | 100 | 60 | 40 | 60 | 70
COc1c(Cl)cc(F)c(-c2nn(C)c(OC(F)F)c2Cl)c1NC(=O)c1cccc(C(F)(F)F)c1 [Compound 1-262] | 0 | 30 | 30 | 100 | 30 | 20 | 10 | 0 | 0 | 0 | 60 | 40 | 80 | 100 | 100 | 30 | 30 | 40 | 50
COc1c(Cl)cc(F)c(-c2nn(C)c(OC(F)F)c2Cl)c1NC(=O)c1ccc(F)cc1 [Compound 1-263] | 90 | 98 | 100 | 100 | 100 | 100 | 40 | 30 | 0 | 10 | 98 | 98 | 100 | 100 | 100 | 70 | 30 | 60 | 50
